According to PMC8576328, “Broad-Spectrum Inhibitor of Bacterial Polyphosphate Homeostasis Attenuates Virulence Factors and Helps Reveal Novel Physiology of Klebsiella pneumoniae and Acinetobacter baumannii” (Frontiers in Microbiology, 2021):

Tests used:
K. pneumoniae PPK1 (KP) [1] = biological target: T1, K. pneumoniae PPK1 (KP) (Klebsiella pneumoniae, UniProt A6TCB5); assay: biochemical; parameters: gene ppk
PPK1A = biological target: T2, PPK1A (Acinetobacter baumannii, UniProt A0A0D5YJ41); assay: polyP synthesis kinetics with purified enzyme, varying ATP; type: biochemical
T2 construct: gene ppk1; AB5075 PPK1A (ABUW_2072), C-terminal His6-tag
T2 sequence (A0A0D5YJ41 entry or part of it): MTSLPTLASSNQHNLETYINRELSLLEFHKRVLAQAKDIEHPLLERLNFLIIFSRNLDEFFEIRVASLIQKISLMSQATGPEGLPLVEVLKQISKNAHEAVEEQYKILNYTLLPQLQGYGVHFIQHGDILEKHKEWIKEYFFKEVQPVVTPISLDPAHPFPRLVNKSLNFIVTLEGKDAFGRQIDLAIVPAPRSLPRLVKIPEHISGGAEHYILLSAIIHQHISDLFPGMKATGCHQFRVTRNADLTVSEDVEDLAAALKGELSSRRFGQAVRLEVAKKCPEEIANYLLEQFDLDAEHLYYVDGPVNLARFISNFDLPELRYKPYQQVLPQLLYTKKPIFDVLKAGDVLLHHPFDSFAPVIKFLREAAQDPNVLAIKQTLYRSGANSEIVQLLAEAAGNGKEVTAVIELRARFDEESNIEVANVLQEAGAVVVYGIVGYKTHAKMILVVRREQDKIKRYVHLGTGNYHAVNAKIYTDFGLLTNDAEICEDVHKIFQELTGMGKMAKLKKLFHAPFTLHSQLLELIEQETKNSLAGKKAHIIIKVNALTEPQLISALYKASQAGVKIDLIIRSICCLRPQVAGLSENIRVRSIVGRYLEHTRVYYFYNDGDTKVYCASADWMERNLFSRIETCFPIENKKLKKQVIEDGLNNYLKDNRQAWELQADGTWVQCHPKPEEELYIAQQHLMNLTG

PPK1B = biological target: T3, PPK1B (Acinetobacter baumannii, UniProt A0A0D5YLD5); assay: as above; type: biochemical
T3 construct: gene ppk2; AB5075 PPK1B (ABUW_2907), N-terminal His6-tag
T3 sequence (A0A0D5YLD5 entry or part of it): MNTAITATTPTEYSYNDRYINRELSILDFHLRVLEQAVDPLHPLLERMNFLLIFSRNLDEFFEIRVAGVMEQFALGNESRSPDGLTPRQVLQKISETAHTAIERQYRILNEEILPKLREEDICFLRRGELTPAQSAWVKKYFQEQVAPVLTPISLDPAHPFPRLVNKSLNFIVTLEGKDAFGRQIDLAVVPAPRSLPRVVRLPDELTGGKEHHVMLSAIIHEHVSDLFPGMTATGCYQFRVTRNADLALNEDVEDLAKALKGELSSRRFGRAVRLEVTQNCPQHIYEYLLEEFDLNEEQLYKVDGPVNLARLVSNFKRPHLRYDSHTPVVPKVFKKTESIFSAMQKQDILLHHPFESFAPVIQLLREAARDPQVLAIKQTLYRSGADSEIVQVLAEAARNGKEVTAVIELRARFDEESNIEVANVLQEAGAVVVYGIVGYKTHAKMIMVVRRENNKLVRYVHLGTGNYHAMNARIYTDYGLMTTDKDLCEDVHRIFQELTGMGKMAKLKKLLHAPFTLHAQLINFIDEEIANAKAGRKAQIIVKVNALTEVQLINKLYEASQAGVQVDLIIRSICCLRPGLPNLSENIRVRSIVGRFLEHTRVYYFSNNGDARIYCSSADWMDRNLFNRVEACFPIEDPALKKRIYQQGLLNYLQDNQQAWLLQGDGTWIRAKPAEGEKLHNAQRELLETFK

K. pneumoniae PPK1 (KP) [2] = biological target: T1, K. pneumoniae PPK1 (KP); assay: polyP synthesis, toluidine blue A630/[…]; type: biochemical; parameters: gene ppk; codon-optimised gene in pET28a, C-terminal His6-tag, E. coli BL21, Ni-NTA purified

T1 sequence (A6TCB5 entry or part of it): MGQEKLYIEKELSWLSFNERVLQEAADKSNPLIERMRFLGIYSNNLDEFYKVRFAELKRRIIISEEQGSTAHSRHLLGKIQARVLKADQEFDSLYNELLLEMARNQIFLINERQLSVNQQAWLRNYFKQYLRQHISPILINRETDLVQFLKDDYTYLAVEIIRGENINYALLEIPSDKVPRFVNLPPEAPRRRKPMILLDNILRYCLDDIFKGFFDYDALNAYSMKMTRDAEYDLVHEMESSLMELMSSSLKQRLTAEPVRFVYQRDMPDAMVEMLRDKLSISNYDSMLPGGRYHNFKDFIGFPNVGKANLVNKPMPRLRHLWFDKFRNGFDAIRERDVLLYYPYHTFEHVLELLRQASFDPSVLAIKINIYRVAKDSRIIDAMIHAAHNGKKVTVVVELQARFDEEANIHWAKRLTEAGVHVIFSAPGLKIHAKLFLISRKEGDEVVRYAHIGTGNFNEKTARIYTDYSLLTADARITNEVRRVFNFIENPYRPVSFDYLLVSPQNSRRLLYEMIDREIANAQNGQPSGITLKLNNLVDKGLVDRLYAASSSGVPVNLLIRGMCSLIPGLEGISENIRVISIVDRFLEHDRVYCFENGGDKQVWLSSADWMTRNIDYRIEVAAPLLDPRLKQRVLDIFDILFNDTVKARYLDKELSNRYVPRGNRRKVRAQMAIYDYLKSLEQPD

Row | SMILES | Ki (K. pneumoniae PPK1 (KP) [1]) | polyP synthesis kinetics with purified enzyme, varying ATP (PPK1A) | polyP synthesis kinetics with purified enzyme, varying ATP (PPK1B) | IC50 (K. pneumoniae PPK1 (KP) [2])
1 | Nc1ncnc2c1ncn2[C@@H]1O[C@H](COP(=O)(O)OP(=O)(O)OP(=O)(O)O)[C@@H](O)[C@H]1O [ATP] | 9.33 ± 1.69 mM |  |  | 
2 | O=C1OC2(c3ccccc31)c1ccc(O)c(O)c1Oc1c2ccc(O)c1O [gallein] |  | Both PPK1A and PPK1B were capable of in vitro polyP synthesis, and also exhibited inhibition by gallein | Both PPK1A and PPK1B were capable of in vitro polyP synthesis, and also exhibited inhibition by gallein | 0.0165 mM
